Laboratory results from patent US12117455B2, “Early detection marker for degenerative osteoarthritis with TRIM24-RIP3 axis” (AJOU UNIVERSITY INDUSTRY-ACADEMIC COOPERATION FOUNDATION, priority 2020, dated 2024).
Entries after “also recorded” stand apart in the source; their conditions may differ. Where a SMILES comes first, the peptide text is derived from it. The star is where a group is joined. Cbz = O=C(OCc1ccccc1)*

What was measured:
[1] = tested on: MLKL; test: MLKL protein levels in chondrocytes treated with proteasome or lysosome inhibitors (Western blotting); type: cell-based, mouse; settings: treatment for 6 hours
Experimental: (§1) Cells were lysed in an M2 buffer, and mouse tissues were lysed in a lysis buffer containing 50 mM Tris-HCl (pH 7.5), 150 mM NaCl, 50 mM NaF, 1% Tween 20, 0.2% NP-40, and a protease inhibitor. Equal amounts of cell extracts were separated using SDS-PAGE (6% stacking gel and 10% running gel) and analyzed through immunoblotting.

[2] = tested on: RIP3-overexpressing chondrocytes; test: MMP3, MMP13 and COX2 expression (RT-PCR, qPCR, Western blotting) in Ad-Rip3-infected chondrocytes; type: cell-based, mouse
Experimental: (§2) Mouse articular chondrocytes were isolated from the cartilage of ICR mice on the 5th day after birth, enzymatically digested with protease and collagenase, and then maintained in DMEM (Capricorn Scientific GmbH: Hessen, Germany) supplemented with 10% FBS, 100 units/mL penicillin and 100 μg/mL streptomycin. On the 3rd day, cells (4.25×10^5 cells/well) were infected with adenovirus or treated with recombinant protein. Mlkl+/+ and Mlkl−/− MEFs were maintained in DMEM supplemented with 10% FBS and penicillin-streptomycin.
as §1
Total RNA was extracted from articular chondrocytes using a TRIzol reagent (Molecular Research Center (Cincinnati, OH, USA)) and then reverse-transcribed into complementary DNA (cDNA) using ImProm-II™ Transcriptase (Promega (Madison, WI, USA)), followed by amplification through PCR or qPCR using the primers shown in Table 2 below. qPCR was performed using SYBR premix Ex Taq (TaKaRa Bio., Kusatsu, Shiga, Japan), and the results thereof were normalized to Gapdh and represented as fold changes compared to controls.

[3] = target: T1, RIP3 (Mus musculus, UniProt Q9QZL0); test: RIP3 kinase activity / RIP3 phosphorylation by Western blotting in Ad-Rip3-infected chondrocytes; type: cell-based; settings: RIP3-overexpressing chondrocytes
T1 construct: host or cells: primary mouse articular chondrocytes (ICR mice), adenoviral infection
T1 sequence (Q9QZL0 whole entry): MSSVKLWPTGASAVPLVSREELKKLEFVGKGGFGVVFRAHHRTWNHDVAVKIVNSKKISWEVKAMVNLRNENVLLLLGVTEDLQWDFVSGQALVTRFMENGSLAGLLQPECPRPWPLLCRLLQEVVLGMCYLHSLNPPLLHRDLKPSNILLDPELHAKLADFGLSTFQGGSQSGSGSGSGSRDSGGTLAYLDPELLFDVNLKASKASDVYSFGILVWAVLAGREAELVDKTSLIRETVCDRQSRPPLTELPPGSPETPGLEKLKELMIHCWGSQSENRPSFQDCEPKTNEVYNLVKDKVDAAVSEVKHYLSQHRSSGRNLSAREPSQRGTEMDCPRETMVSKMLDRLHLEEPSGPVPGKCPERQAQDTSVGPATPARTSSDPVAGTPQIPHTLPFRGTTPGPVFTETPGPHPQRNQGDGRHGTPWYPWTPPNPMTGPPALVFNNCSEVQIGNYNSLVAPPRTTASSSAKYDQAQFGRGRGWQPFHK
Experimental: as §2, §1

[4] = tested on: chondrocytes; test: Cell viability / cytotoxicity by LDH assay in chondrocytes; type: cell-based, mouse; settings: for cytotoxic effects on chondrocytes (LDH release assay, Western blotting, phase-contrast microscopy): chondrocytes infected with Ad-C or Ad-Rip3
Experimental: Mouse articular chondrocytes were isolated from the cartilage of ICR mice on the 5th day after birth, enzymatically digested with protease and collagenase, and then maintained in DMEM (Capricorn Scientific GmbH: Hessen, Germany) supplemented with 10% FBS, 100 units/mL penicillin and 100 μg/mL streptomycin. On the 3rd day, cells (4.25×10^5 cells/well) were infected with adenovirus or treated with recombinant protein. Mlkl+/+ and Mlkl−/− MEFs were maintained in DMEM supplemented with 10% FBS and penicillin-streptomycin. Cell viability was assessed using a lactate dehydrogenase (LDH) colorimetric assay kit (Bio Vision (Milpitas, CA, USA)). Chondrocytes were dispensed into a 96-well dish (1.5×10^4 cells/well), cultured for 24 hours (5% CO2, 37° C.), and treated with various concentrations of AZ-628, selumetinib, and neratinib for 24 hours. The supernatant was analyzed using a microplate reader at 495 nm. Untreated (100% viable) and Triton X-100 treated (0% viable) samples were used for normalization. The viability was calculated as follows.

Molecule: CC(C)C[C@@H](C=O)NC(=O)[C@H](CC(C)C)NC(=O)[C@H](CC(C)C)NC(=O)OCc1ccccc1 [MG132] (Cbz-Leu-Leu-Leu-aldehyde)
- MLKL protein levels [1]: did not change

Molecule: Cc1ccc(NC(=O)c2cccc(C(C)(C)C#N)c2)cc1Nc1ccc2ncn(C)c(=O)c2c1 [AZ-628]
- inhibition of osteoarthritis manifestations in RIP3-overexpressing chondrocytes ([2]; compared with selumetinib or neratinib): more effectively inhibited
- Mmp3 and Cox2 expression (osteoarthritis-related gene expression) ([2]; qPCR, RIP3-overexpressing chondrocytes treated with RIP3 kinase inhibitors): decreased; also recorded: attenuated
- RIP3 (kinase) activity [3]: potent RIP3 kinase inhibitor; also recorded: attenuates RIP3 kinase activity
- cytotoxic effects in chondrocytes (LDH assay) ([4]; at 2 μM, 24 hours): no toxicity
- cytotoxic effects on chondrocytes (LDH release assay, Western blotting, phase-contrast microscopy) [4]: without chondrocyte toxicity

Molecule: CC(C)S(=O)(=O)c1ccc2nccc(Nc3ccc4scnc4c3)c2c1 [GSK 872]
- cytotoxic effects on chondrocytes (LDH release assay, Western blotting, phase-contrast microscopy) [4]: greater cytotoxic effects on chondrocytes than AZ-628

Molecule: CCN(CC)CCCC(C)Nc1ccnc2cc(Cl)ccc12 (stereo not drawn) [CQ, Chloroquine diphosphate]
- MLKL protein levels [1]: did not change

Molecule: HS-1371
- cytotoxic effects on chondrocytes (LDH release assay, Western blotting, phase-contrast microscopy) [4]: greater cytotoxic effects on chondrocytes than AZ-628
